Experimental findings from patent US20060183797A1, “Fatty alcohols and fatty acid esters useful for treatment of inflammation” (priority 2001, published 2006) are described below.

Holding throughout (type): in vivo
Test [1] concerns adjuvant arthritis (AA). In words: Adjuvant arthritis (AA) in Lewis rats, inhibition of inflammation. To be noted: for % Inhibition (100 μl) of the inflammation of adjuvant arthritis: 100 μl SC once, 14 days before induction of AA or on day 12 after induction, day of maximal inflammation. Here is the method:
AA was induced by immunizing inbred 8-10-week old Lewis rats (Harlan-Olac Limited, Blackthorn, Oxon, UK), at the base of the tail with 1 mg/0.1 ml of killed Mycobacterium tuberculosis (Sigma) in IFA (Sigma) as described (Pearson, 1956). Arthritis of the limbs was noted to develop 12-14 days later and was scored on a scale of 0-16 summing the severity of the inflammation of each of the 4 limbs on a scale of 0-4, as described (Holoshitz et al., 1983). The peak of the arthritis usually was observed around day 26 after immunization.
Control rats were untreated or treated by injections of saline. A positive control of immunosuppression was obtained by including a group of rats treated with the corticosteroid agent dexamethasone (200 μg) administered intraperitoneally every other day beginning on day 12 after induction.
The immunomodulator of the invention (100 μl oleyl alcohol, glycerol mono-oleate, linolenyl alcohol or cetyl alcohol) was administered subcutaneously (SC) once 14 days before induction of AA or on day 12 after induction of AA. The percent inhibition of inflammation measured on the day of maximal inflammation was computed as follows: [formula] […]

Test [2] relates to experimental autoimmune encephalomyelitis (EAE). The test can be described thus: Experimental autoimmune encephalomyelitis (EAE) in Lewis rats. The following applies: 0.5 ml/kg SC once, 14 days before EAE induction.
In test [3] the test system is adjuvant arthritis (AA). The test can be described thus: Adjuvant arthritis (AA) in Lewis rats, inhibition of inflammation. To be noted: for suppression of inflammation on day of peak disease: day 26.
[4] abbreviates: vs non-treated control, listed as OA.

SMILES strings stand for the structures. Several values for one entry are separate records, joined by “and”; a condition that tells them apart may be missing. Identical values can stand only once.

For `CCCCCCCCCCCCCCCCO` [Cetyl alcohol, cetyl alcohol], in test [1], the “% Inhibition (100 μl) of the inflammation of adjuvant arthritis” value (“% Inhibition (100 μl)” below) is on record as 66%.

For the compound `CCCCCCCC/C=C\CCCCCCCC(=O)OCC(O)CO` (stereo not drawn) [Glycerol mono-oleate, glycerol monooleate], in test [1], the “% Inhibition (100 μl)” value turned out to be 98%.

As for `CCC=CCC=CC/C=C\CCCCCCCCO` [Linolenyl alcohol, cis-9,12,15-octadecatrienol], the “% Inhibition (100 μl)” value in test [1] is listed as 75%.

Regarding `CCCCCCCC/C=C\CCCCCCCCO` [Oleyl alcohol, cis-9-octadecenol], in test [2], the “% Incidence of disease” value is given as 50.0% and the “effect on EAE clinical parameters (in words)” value is reported as “beneficial effect on all the clinical parameters”. For the same compound, in test [2] (rats without EAE counted as 25 days), the “Mean Onset of disease (Day No.)” value was 18.6 Day No. For the same compound, the “Disease duration” value in test [2] (rats without EAE counted as zero) is given as 2.0 days. Further, in test [2] (scale 0-5), the “GMS (group mean score)” value was 0.22 and the “MMS (mean maximal score)” value came to 0.88. In addition, in test [2] (vs non-treated control), the “% Activity GMS” value amounted to 77.1%, the “% Activity Incidence” value is on record as 33.3% and the “% Activity MMS” value stood at 63%. In test [2] (setting [4]), the “% Activity GMS” value was 77.1% and the “% Activity MMS” value is reported as 63.0%. Moreover, in test [1], the “% Inhibition (100 μl)” value worked out at 78%. Further, the “suppression of inflammation on day of peak disease” value (from here on “suppression … of peak disease”) in test [3] (10 μl SC once 14 days before induction) was determined as 14%. The “suppression … of peak disease” value in test [3] (50 μl SC once 14 days before induction) is reported as 61%. Moreover, in test [3] (100 μl SC once 14 days before induction), the “suppression … of peak disease” value is reported as 78%. Further, in test [3] (500 μl SC once 14 days before induction), the “suppression … of peak disease” value was determined as 90%. For the same compound, in test [3] (500 μl, two further experiments), the suppression of inflammation is 96% and 91%.

Take `CCCCCCCC/C=C\CCCCCCCC(=O)O` [oleic acid, cis-9-octadecenoic acid, reference compound]: the “effect on inflammation of adjuvant arthritis (in words)” value in test [1] (Lewis rats, Example 1) is recorded as “no effect”.
